Data from patent US20180344856A1, “COMPOSITIONS AND/OR ARTICLES WITH IMPROVED SOLUBILITY OF A SOLID ACTIVE” (The Procter & Gamble Company, priority 2012, published 2018).

Assays:
[1] = Solvency of solvents for tetrahydrocurcuminoids (THC), visual check for crystals after storage; settings: solute tetrahydrocurcuminoids (THC), 3% test solution, approximately 1:32 solute to solvent ratio, soluble = no visible crystals
[2] = Solvency of solvents for (S)-Equol, visual check for crystals after storage; assay type: physicochemical; settings: solute (S)-Equol, 6% test solution, approximately 1:16 solute to solvent ratio, soluble = no visible crystals
Method: (§1) In the testing provided below, “soluble” (or “solubilize”), in relation to the solubility of a solid solute being tested, means that no visible crystals may be seen after a prescribed storage period at a storage condition. The storage period can vary. Suitable storage periods include about 24 hours, about 1 week, and about 30 days. Suitable storage conditions include ambient conditions or cold storage at 5° C. (approximately 1 atm). In certain embodiments, solubility may be determined after a 24 hour storage period at ambient conditions. In other embodiments, solubility may be determined after 20 days in cold storage. Other testing parameters may include storage for prolonged time periods (e.g., 30 day, 50 days, 60 days, 90 days) and at variable temperatures (e.g., 5° C., 50° C.).
(§2) The solvency of an isosorbide diester within the scope of the present invention was tested against two conventional, industry standard solvents. […] A test solution was of 6% Equol is prepared with heating to 70° C. Upon reaching 70° C., the examples may be mixed for about 10 minutes. Place mixtures in a covered vial and cool to the storage temperature. Solubility is evaluated for samples stored 24 hours at ambient conditions. Solubility is also evaluated for samples stored for 7 day at 5° C. followed by equilibration to ambient conditions.

[3] = Solvency of solvents for hexylresorcinol, visual check for crystals after storage; assay type: physicochemical; settings: solute hexylresorcinol, 33.5% test solution, approximately 1:2 solute to solvent ratio, soluble = no visible crystals
Method: as §1
as §2, with “solution” for “solution was”, “33.5% hexylresorcinol” for “6% Equol”

[4] = then equilibration to ambient conditions

CCCCCCCCCCCC(=O)N(C)CC(=O)OC(C)C [Isopropyl lauroyl sarcosinate, isopropyl lauroyl sarcosinate]
Soluble: Solubility, 24 hour rest at Ambient Conditions ([1]; heated to 70° C.) | Solubility, 7 day storage at 5° C. [1, 4] | Solubility, 24 hour rest at Ambient Conditions ([2]; heated to 70° C.) | Solubility, 7 day storage at 5° C. [2, 4] | Solubility, 24 hour rest at Ambient Conditions ([3]; heated to 70° C.) | Solubility, 7 day storage at 5° C. [3, 4]
